Where two headings read alike, the source gives them in different places. Marks after values point to notes of the source that are not given here.
Columns and labels:
mice subjected to stroke = experiment: Photothrombosis-induced stroke in mice, TTC-stained brain infarction size; type: in vivo, C57Bl/6 mice; conditions: 24 hours
Method: Photothrombosis-induced Stroke: Photothrombosis was performed as described in Zheng et al 2010 (PloS One 5 (12): e14401). In brief, Rose Bengal is a fluorescent dye that when injected into the vasculature and excited, generates singlet oxygen that damages the endothelial wall and induces a local thrombosis (clot). Using this technique, mice were given a 0.1 mL tail-vein injection of sterilized Rose Bengal (RB, Sigma, U.S.A.) in artificial cerebral spinal fluid (aCSF). The RB concentration was 20 mg/mL. A cortical region was centered in the imaging field and illuminated with a green laser (543 nm, 5 mW) using a 0.8-NA 40× water-immersion objective (Nikon, Tokyo). The clot formation was monitored in real time until the targeted vessel or downstream capillaries were firmly occluded. Stable clots were subsequently identified by a non-fluorescent vessel segmentation ending with highly fluorescent regions. […] Treatments, MRS4322 (0.16 mg/kg; 0.5 μmol/kg) or MRS2365 (0.24 mg/kg; 0.5 μmol/kg) were introduced via intraperitoneal injections (i.p.). For experiments with A3 receptor antagonist MRS1523, mice were administered intraperitoneal injections (2 mg/kg) at the 0 and 2 hour timepoints to ensure receptor antagonism throughout the course of the study.
Animals and Photothrombosis-induced Stroke: Stroke was performed as described in Zheng et al 2010 (PloS One 5 (12): e14401). Female C57Bl/6 mice (4-6 months) were used in this study. From the methods of this manuscript: Mice were anesthetized at 3% isoflurane with 100% oxygen and subsequently maintained at 1% isoflurane through a nosecone. Depth of anesthesia was monitored and regulated according to vital signs, pinch withdrawal and eye blinks. Body temperature was maintained at 37° C. by a feedback-controlled heating pad (Gaymar T/Pump). Vital signs including oxygen saturation, respiratory rate, and heart rate were continuously monitored by using the MouseOx system (STARR Life Sciences). The hair on each mouse's head was trimmed and a small incision was made in the scalp to expose the skull. A custom-made stainless steel plate was glued to the skull with VetBond Tissue Adhesive (3M, St Paul, MN). A cranial thinned-skull imaging window was created over the right primary somatosensory cortex (˜1.5 mm posterior to Bregma and 2 mm lateral from midline) depending on the experiment. In brief, a large region of the skull was first thinned with the electric drill and then further thinned with a surgical blade. The final thickness of the thinned skull was approximately 50 μm. After the cranial imaging window was created, mice were transferred to microscope stage and used for photothrombosis or imaging experiments. For the repeat imaging experiments, the plate was carefully detached from the skull and the scalp was sutured (Ethicon 6-0 sild suture). After each experiment, the mice were either returned to cages until the next timepoint or sacrificed. All procedures were approved by the Institutional Animal Care and Use Committee (IACUC) at University of Texas Health Science Center at San Antonio. Thirty minutes following stroke or sham (uninjured), mice were treated with either vehicle (saline) or drugs (MRS4322, MRS2365, MRS5698 or Cl-IBMECA).
Post photothrombotic infarction evaluation. The size of cerebral infarcts was evaluated using 2,3,5-Triphenyltetrazolium chloride (TTC) staining as described in Zheng et al 2010 (PloS One 5 (12): e14401). In brief, RB-induced lesions in brain slices were stained with TTC. TTC is a colorless dye that stains healthy brain tissue red when reduced by the mitochondrial enzyme succinyl dehydrogenase (Bederson J B et al., 1986). The absence of staining in necrotic tissue is then used to define the area of a brain infarction. Mice were sacrificed by cervical dislocation, their brains removed and then placed in ice cold HBSS for 3 minutes. The brain was subsequently transferred to a brain mold (KOPF), sliced into 1 mm sections and immersed in 2% TTC (5 min) at 37° C. […]

[1] = Plasma binding determination by plasma ultrafiltration, mouse; type: in vitro ADME; conditions: mouse plasma, 1 μM
Method: (§1) Animals and Tissue Preparation: Plasma from male CD-1 mice was obtained from BioreclamationIVT (Westbury, NY) and stored at −80° C. until use. Male CD-1 mouse brains were obtained from BioreclamationIVT (Westbury, NY).
Plasma ultrafiltrate blank samples were prepared by thawing frozen plasma and then pre-warming plasma in a humidified 5% CO2 chamber at 37° C. for 60 minutes. Aliquots of 800 μL were transferred to Centrifree Centrifugal Filters (Ultracel regenerated cellulose (NMWL 30,000 amu) Lot R5JA31736) and centrifuged at 2900 RPM at 37° C. for 10 minutes; plasma water filtrates were collected and used in preparation of standards, blanks and QC standards.
Plasma samples were pre-warmed for 60 minutes in a humidified, 5% CO2 incubator maintained at 37° C. […] Spiked plasma samples were incubated on a rotary mixer in a humidified 5% CO2 chamber at 37° C. for a minimum of 60 minutes. After 60 minutes, three 800 μL aliquots of each sample were added to Centrifree centrifugal filters. The filters were subjected to centrifugation at 2900 rpm for 10 minutes at 37° C. Three 100 μL aliquots of residual plasma were collected along with ultrafiltrate for bioanalysis.
(§2) Plasma and brain concentrations of MRS4322 and MRS5698 in spiked plasma, brain homogenates and associated ultrafiltrates were determined by LC-MS/MS utilizing tolbutamide as an internal standard. […] The following tables outline the LC and MS/MS conditions employed (Tables 7 and 8).
(§3) For each tissue matrix, standard curves were created and LLOQ/ULOQ concentrations determined. The calibration range for the MRS4322 and MRS5698 plasma concentration standard curves was 400-1200 nM. The calibration range for MRS4322 and MRS5698 plasma ultrafiltrate standard curves was 100-1200 nM. The calibration range for MRS4322 brain homogenate and brain homogenate ultrafiltrate standard curves were 400-1200 nM and 100-1200 nM, respectively. The calibration range for MRS5698 brain homogenate and brain homogenate ultrafiltrate standard curves were 400-1200 nM and 1-500 nM, respectively.

[2] = Brain binding determination by brain homogenate ultrafiltration, mouse; type: in vitro ADME; conditions: for fraction unbound at 60 min, 1 μM: male, CD-1, mouse, brain homogenate, pH 7.4, mouse brain homogenate
Method: as §1
Brains were weighed and homogenized with 1:9 phosphate-buffered saline, pH 7.4 using an Omni tissue homogenizer. Brains from four mice were homogenized, pooled and mixed to form one sample.
Pooled homogenized brains were pre-warmed for 60 minutes in a humidified, 5% CO2 incubator maintained at 37° C. […] Spiked pooled brain homogenates were placed on a Nutator mixer in a humidified, 5% CO2 incubator at 37° C. for 60 minutes. After 60 minutes, three 800 μL aliquots of each sample were added to Centrifree centrifugal filters. The filters were subjected to centrifugation at 2900 rpm for 10 minutes at 37° C. Aliquots of residual brain homogenate and ultrafiltrate were collected for bioanalysis.
as §2, §3

Row | Compound | size of the brain infarction (TTC staining) (mice subjected to stroke; photothrombotic stroke mice, 100 ul of 100 uM ip within 30 minutes of clot formation, vs vehicle) | concentrations in the plasma ultrafiltrate [1] | fraction unbound at 60 min, 1 μM ([2]; 37° C., ultrafiltration, read-out: % Bound Mean (converted)) | fraction unbound at 60 min, 1 μM ([2]; 37° C., ultrafiltration, read-out: Fraction Unbound Mean) | concentrations in the brain homogenate ultrafiltrate ([2]; mouse brain homogenate, 1 μM) | % Bound Mean ([2]; mouse brain homogenate, 1 μM, 37° C., ultrafiltration) | size of brain infarctions in mice pretreated with A3 receptor antagonist MRS1523 (mice subjected to stroke; MRS1523 2 mg/kg ip at 0 and 2 hour, treatment within 30 minutes of clot formation)
1 | Nc1nc(Cl)nc2c1ncn2[C@H]1[C@H](O)[C@H](O)[C@]2(CO)C[C@H]12 [MRS1873] | significantly reduced | – | – | – | – | – | –
2 | CNC(=O)[C@@]12C[C@@H]1[C@@H](n1cnc3c(NCc4cccc(Cl)c4)nc(C#Cc4ccc(F)c(F)c4)nc31)[C@H](O)[C@@H]2O [MRS5698] | – | not detected | 0.0001 | < 0.000122 | not detected | >99.99* % | not reduced
